Results on eight molecules are retold here after patent US10570129B2 (Zoetis Services LLC, priority 2015, dated 2020).

One assay relates to D. immitis microfilariae. Nature of the assay: Dirofilaria immitis, microfilariae (DiMF) in vitro motility assay. The format is cell-based. The settings on record: Dirofilaria immitis, 72 h, read-out: DiMF minimally effective dose (MEC).
Another assay has as its system Haemonchus contortus L3. Nature of the assay: microbe, parasite or virus in culture. The conditions noted are these: Haemonchus contortus, 96 h, read-out: HcL3 Minimal Effective Concentration (MEC). It counts as cell-based.
For assay [1], the system named is Trichostrongylus colubriformis. The assay can be described thus: Jird efficacy model. The format is in vivo. The conditions noted are these: Trichostrongylus colubriformis, sc, 96 h, read-out: Jird % (percentage efficacy).

As for `O=C(NCc1ccnc(F)c1)n1c2c(c3ccc(OC(F)(F)F)cc31)CN(C/C=C/c1ccc(F)cc1F)CC2` [Example 374, (E)-2-(3-(2,4-difluorophenyl)allyl)-N-((2-fluoropyridin-4-yl)methyl)-7-(trifluoromethoxy)-1,2,3,4-tetrahydro-5H-pyrido[4,3-b]indole-5-carboxamide], the minimal effective concentration in the assay with D. immitis microfilariae and with Haemonchus contortus L3 was 5.7 µM throughout. Further, the inhibition in vivo at 10 mg/kg in assay [1] was 72%.
`O=C(NCc1ccnc(F)c1)n1c2c(c3ccc(OC(F)(F)F)cc31)CN(C/C=C/c1cc(F)c(F)c(F)c1)CC2` [Example 377, (E)-N-((2-fluoropyridin-4-yl)methyl)-7-(trifluoromethoxy)-2-(3-(3,4,5-trifluorophenyl)allyl)-1,2,3,4-tetrahydro-5H-pyrido[4,3-b]indole-5-carboxamide]: the minimal effective concentration stood at 5.7 µM in the assay on D. immitis microfilariae and 0.3 µM in the assay with Haemonchus contortus L3. In assay [1], the inhibition in vivo at 10 mg/kg was 99%.
Take `O=C(NCc1ccnc(F)c1)n1c2c(c3ccc(OC(F)(F)F)cc31)CN(C/C=C/c1ccc(Cl)cc1)CC2` [Example 379, (E)-2-(3-(4-chlorophenyl)allyl)-N-((2-fluoropyridin-4-yl)methyl)-7-(trifluoromethoxy)-1,2,3,4-tetrahydro-5H-pyrido[4,3-b]indole-5-carboxamide]: the minimal effective concentration in the assay on D. immitis microfilariae was 5.7 µM; with Haemonchus contortus L3, 1 µM. In assay [1], the inhibition in vivo at 10 mg/kg came to 100%.
Take `N#Cc1ccc(/C=C/CN2CCc3c(c4cc(OC(F)(F)F)ccc4n3C(=O)NCc3ccnc(Cl)c3)C2)cc1` [Example 390, (E)-N-((2-chloropyridin-4-yl)methyl)-2-(3-(4-cyanophenyl)allyl)-8-(trifluoromethoxy)-1,2,3,4-tetrahydro-5H-pyrido[4,3-b]indole-5-carboxamide]: the minimal effective concentration with D. immitis microfilariae amounted to 18.2 µM; in the assay with Haemonchus contortus L3, 0.5 µM. The inhibition in vivo at 10 mg/kg in assay [1] was 100%.
Turning to `O=C(NCc1ccnc(Cl)c1)n1c2c(c3cc(OC(F)(F)F)ccc31)CN(C/C=C/c1ccc(Cl)cc1)CC2` [Example 391, (E)-2-(3-(4-chlorophenyl)allyl)-N-((2-chloropyridin-4-yl)methyl)-8-(trifluoromethoxy)-1,2,3,4-tetrahydro-5H-pyrido[4,3-b]indole-5-carboxamide], the figures for the minimal effective concentration in the assay on D. immitis microfilariae and in the assay on Haemonchus contortus L3 were 32.1 µM and 1 µM, respectively. The inhibition in vivo at 10 mg/kg in assay [1] came out at 100%.
With `O=C(NCc1ccnc(F)c1)n1c2c(c3cc(C(F)(F)F)ccc31)CN(C/C=C/c1ccc(F)cc1F)CC2` [Example 417, (E)-2-(3-(2,4-difluorophenyl)allyl)-N-((2-fluoropyridin-4-yl)methyl)-8-(trifluoromethyl)-1,2,3,4-tetrahydro-5H-pyrido[4,3-b]indole-5-carboxamide], the minimal effective concentration with D. immitis microfilariae is 10 µM; with Haemonchus contortus L3, 5.7 µM. Besides, in assay [1], the inhibition in vivo at 10 mg/kg amounted to 100%.
Turning to `O=C(NCc1ccnc(F)c1)n1c2c(c3cc(C(F)(F)F)ccc31)CN(C/C=C/c1ccc(F)c(Cl)c1)CC2` [Example 418, (E)-2-(3-(3-chloro-4-fluorophenyl)allyl)-N-((2-fluoropyridin-4-yl)methyl)-8-(trifluoromethyl)-1,2,3,4-tetrahydro-5H-pyrido[4,3-b]indole-5-carboxamide], the minimal effective concentration with D. immitis microfilariae is 18.2 µM; in the assay with Haemonchus contortus L3, 3.3 µM. Also, the inhibition in vivo at 10 mg/kg in assay [1] came to 95%.
Taken in the same sequence, the figures for `O=C(NCc1ccnc(F)c1)n1c2c(c3cc(C(F)(F)F)ccc31)CN(C/C=C/c1ccc(F)c(F)c1)CC2` [Example 419, (E)-2-(3-(3,4-difluorophenyl)allyl)-N-((2-fluoropyridin-4-yl)methyl)-8-(trifluoromethyl)-1,2,3,4-tetrahydro-5H-pyrido[4,3-b]indole-5-carboxamide] were 10 µM, 1 µM and 100%.
